# Data reported in the supplement of paper PMC10307832.
# What was measured:
# Test in all cases: relative viability (nuclei count vs DMSO), 5 days (fraction); higher = more cells survive
# [1] = test system: NCI-H1755
# Summary of the method: (§1)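 Five library-drug doses in √10 steps were combined with a fixed anchor-drug dose, or a single drug was given alone, by pin tool to lung cancer cell lines in 1536-well plates the day after seeding. Nuclei were stained and counted after 5 days. Relative viability is the nuclei count in treated wells over that in vehicle wells, taken as the median of duplicate plates.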
# [2] = test system: UMC-11
# Summary of the method: as §1
# [3] = test system: EKVX
# Summary of the method: as §1
# [4] = test system: LCLC-103H
# Summary of the method: as §1
# [5] = test system: HCC-44
# Summary of the method: as §1
# [6] = test system: IA-LM
# Summary of the method: as §1
# [7] = test system: HCC-15
# Summary of the method: as §1
# [8] = test system: EBC-1
# Summary of the method: as §1
# [9] = test system: NCI-H1703
# Summary of the method: as §1
# [10] = test system: NCI-H1299
# Summary of the method: as §1
# [11] = test system: Calu-6
# Summary of the method: as §1
# [12] = test system: A549
# Summary of the method: as §1
compound,measurement,setting,value
COc1nc(C)cnc1NS(=O)(=O)c1cccnc1-c1ccc(-c2nnco2)cc1 [Zibotentan] + CC(C)C[C@H](NC(=O)[C@H](Cc1ccccc1)NC(=O)c1cnccn1)B(O)O [Bortezomib] (partner 0.002 µM),relative viability,[1]; first compound 0.08 µM,0.945
same,relative viability,[1]; first compound 0.253 µM,0.952
same,relative viability,[1]; first compound 0.8 µM,0.968
same,relative viability,[1]; first compound 2.53 µM,0.97
same,relative viability,[2]; first compound 0.08 µM,0.601
same,relative viability,[2]; first compound 0.253 µM,0.623
same,relative viability,[2]; first compound 0.8 µM,0.668
same,relative viability,[2]; first compound 2.53 µM,0.909
same,relative viability,[3]; first compound 0.08 µM,1.13
same,relative viability,[3]; first compound 0.253 µM,1.17
same,relative viability,[3]; first compound 0.8 µM,1.11
same,relative viability,[3]; first compound 2.53 µM,1.07
same,relative viability,[4]; first compound 0.08 µM,1.02
same,relative viability,[4]; first compound 0.253 µM,1
same,relative viability,[4]; first compound 0.8 µM,1.27
same,relative viability,[4]; first compound 2.53 µM,1.04
same,relative viability,[5]; first compound 0.08 µM,0.909
same,relative viability,[5]; first compound 0.253 µM,0.894
same,relative viability,[5]; first compound 0.8 µM,0.959
same,relative viability,[5]; first compound 2.53 µM,0.883
same,relative viability,[6]; first compound 0.08 µM,0.791
same,relative viability,[6]; first compound 0.253 µM,0.758
same,relative viability,[6]; first compound 0.8 µM,0.709
same,relative viability,[6]; first compound 2.53 µM,0.828
same,relative viability,[7]; first compound 0.08 µM,0.99
same,relative viability,[7]; first compound 0.253 µM,1.01
same,relative viability,[7]; first compound 0.8 µM,0.979
same,relative viability,[7]; first compound 2.53 µM,1.09
same,relative viability,[8]; first compound 0.08 µM,0.704
same,relative viability,[8]; first compound 0.253 µM,0.566
same,relative viability,[8]; first compound 0.8 µM,0.584
same,relative viability,[8]; first compound 2.53 µM,0.592
same,relative viability,[9]; first compound 0.08 µM,0.512
same,relative viability,[9]; first compound 0.253 µM,0.372
same,relative viability,[9]; first compound 0.8 µM,0.38
same,relative viability,[9]; first compound 2.53 µM,0.346
same,relative viability,[10]; first compound 0.08 µM,0.999
same,relative viability,[10]; first compound 0.253 µM,0.998
same,relative viability,[10]; first compound 0.8 µM,0.965
same,relative viability,[10]; first compound 2.53 µM,1.08
same,relative viability,[11]; first compound 0.08 µM,0.929
same,relative viability,[11]; first compound 0.253 µM,0.888
same,relative viability,[11]; first compound 0.8 µM,1.02
same,relative viability,[11]; first compound 2.53 µM,1.06
COc1nc(C)cnc1NS(=O)(=O)c1cccnc1-c1ccc(-c2nnco2)cc1 [Zibotentan] + C[C@@H](Oc1cc(-c2cnn(C3CCNCC3)c2)cnc1N)c1c(Cl)ccc(F)c1Cl [Crizotinib] (partner 1 µM),relative viability,[1]; first compound 0.08 µM,0.891
same,relative viability,[1]; first compound 0.253 µM,0.887
same,relative viability,[1]; first compound 0.8 µM,0.826
same,relative viability,[1]; first compound 2.53 µM,0.873
same,relative viability,[2]; first compound 0.08 µM,0.606
same,relative viability,[2]; first compound 0.253 µM,0.64
same,relative viability,[2]; first compound 0.8 µM,0.62
same,relative viability,[2]; first compound 2.53 µM,0.568
same,relative viability,[3]; first compound 0.08 µM,0.875
same,relative viability,[3]; first compound 0.253 µM,0.733
same,relative viability,[3]; first compound 0.8 µM,0.848
same,relative viability,[3]; first compound 2.53 µM,1.03
same,relative viability,[4]; first compound 0.08 µM,0.932
same,relative viability,[4]; first compound 0.253 µM,0.965
same,relative viability,[4]; first compound 0.8 µM,0.97
same,relative viability,[4]; first compound 2.53 µM,1.05
same,relative viability,[5]; first compound 0.08 µM,0.777
same,relative viability,[5]; first compound 0.253 µM,0.761
same,relative viability,[5]; first compound 0.8 µM,0.872
same,relative viability,[5]; first compound 2.53 µM,0.772
same,relative viability,[6]; first compound 0.08 µM,0.809
same,relative viability,[6]; first compound 0.253 µM,0.702
same,relative viability,[6]; first compound 0.8 µM,1.1
same,relative viability,[6]; first compound 2.53 µM,0.975
same,relative viability,[12]; first compound 0.08 µM,0.932
same,relative viability,[12]; first compound 0.253 µM,0.696
same,relative viability,[12]; first compound 0.8 µM,0.742
same,relative viability,[12]; first compound 2.53 µM,0.761
same,relative viability,[7]; first compound 0.08 µM,0.918
same,relative viability,[7]; first compound 0.253 µM,0.748
same,relative viability,[7]; first compound 0.8 µM,0.843
same,relative viability,[7]; first compound 2.53 µM,0.885
same,relative viability,[8]; first compound 0.08 µM,0.176
same,relative viability,[8]; first compound 0.253 µM,0.194
same,relative viability,[8]; first compound 0.8 µM,0.202
same,relative viability,[8]; first compound 2.53 µM,0.223
same,relative viability,[9]; first compound 0.08 µM,0.722
same,relative viability,[9]; first compound 0.253 µM,0.756
same,relative viability,[9]; first compound 0.8 µM,0.864
same,relative viability,[9]; first compound 2.53 µM,0.555
same,relative viability,[10]; first compound 0.08 µM,0.949
same,relative viability,[10]; first compound 0.253 µM,0.924
same,relative viability,[10]; first compound 0.8 µM,0.95
same,relative viability,[10]; first compound 2.53 µM,0.968
same,relative viability,[11]; first compound 0.08 µM,0.854
same,relative viability,[11]; first compound 0.253 µM,0.786
same,relative viability,[11]; first compound 0.8 µM,0.741
same,relative viability,[11]; first compound 2.53 µM,0.752
